Test results published in US5661165A, “((4-phenyl-1,2,5-thiadiazol-3-yl)oxy)methyl ester thiocyanic acid compounds, compositions containing them and their use as antimicrobial and marine antifouling agents” (The Dow Chemical Company, priority 1996, dated 1997).
≈ marks a conversion by molar mass, not a printed value. Where two headings read alike, the source gives them in different places.

Experiments:
[1] = system: Psuedomonas aeruginosa (Pa); test: MIC against bacteria (nutrient agar); type: cell-based, Psuedomonas aeruginosa ATCC 10145; conditions: 30° C., 48 h, read-out: Minimum Inhibitory Concentration, Pa
Procedure: (§1) The antimicrobial activity of the compounds of the present invention is set forth as the minimum inhibitory concentration (MIC) for the active compounds and is determined for nine (9) bacteria, using nutrient agar, and seven (7) yeast and fungi, using malt yeast agar. This determination is conducted using a one percent solution of the test compound prepared in a mixture of acetone and water.
Nutrient agar is prepared at pH 6.8, representing a neutral medium, and at pH 8.2, representing an alkaline medium. The nutrient agars are prepared by adding 23 g of nutrient agar to one-liter of deionized water. In addition, the alkaline medium is prepared by adjusting a 0.04M solution of N-[tris-(hydroxymethyl)methyl]-glycine buffered deionized water with concentrated sodium hydroxide to a pH of 8.5.
(§2) The test tubes containing the agar are cooled in a water bath until the temperature of the agar is 48° C. Then, an appropriate amount of the one percent solution of the test compound is added (except in the controls where no compound is added) to the respective test tubes so that the final concentrations are 500, 250, 100, 50, 25, 10, 5, 2.5, 1.0 and zero parts per million of the test compound in the agar, thus having a known concentration of test compound dispersed therein. The contents of the test tubes are then transferred to respective petri plates. After drying for 24 hours, the petri plates containing nutrient agar are inoculated with bacteria and those containing malt yeast agar are inoculated with yeast and fungi.
The inoculation with bacteria is accomplished by using the following procedure. Twenty-four hour-cultures of each of the bacteria are prepared by incubating the respective bacteria in tubes containing nutrient broth for 24 hours at 30° C. in a shaker. Dilutions of each of the 24 hour-cultures are made so that nine separate suspensions (one for each of the nine test bacteria) are made, each containing 10^8 colony forming units (CFU) per mL of suspension of a particular bacteria. Aliquots of 0.3 mL of each of the bacterial suspensions are used to fill the individual wells of Steer's Replicator. For each microbial suspension, 0.3 mL was used to fill three wells (i.e., three wells of 0.3 mL each) so that for the nine different bacteria, 27 wells are filled. The Steer's Replicator is then used to inoculate both the neutral and alkaline pH nutrient agar petri plates.
The inoculated petri plates are incubated at 30° C. for 48 hours and then read to determine if the test compound which is incorporated into the agar prevented growth of the respective bacteria.
(§3) Table I lists the bacteria, yeast and fungi used in the MIC test described above along with their respective American Type Culture Collection (ATCC) identification numbers.

[2] = system: Salmonella choleraesuis (Sc); test: MIC against bacteria (nutrient agar); type: cell-based, Salmonella choleraesuis ATCC 10708; conditions: Salmonella enterica, 30° C., 48 h, read-out: Minimum Inhibitory Concentration, Sc
[3] = system: Pencillium chrysogenum (Pc); test: MIC against yeast/fungi (malt yeast agar); type: cell-based, Pencillium chrysogenum ATCC 9480; conditions: 30° C., fungi read after 72 h, read-out: Minimum Inhibitory Concentration, Pc
Procedure: as §1
(§4) Malt yeast agar is prepared by adding 3 g yeast extract and 45 g malt agar per liter of deionized water. The specific agar is dispensed in 30 mL aliquots into 25×200 mm test tubes, capped and autoclaved for 15 minutes at 115° C.
as §2
(§5) The inoculation with the yeast and fungi is accomplished as follows. Cultures of yeast and fungi are incubated for seven days on malt yeast agar at 30° C. These cultures are used to prepare suspensions by the following procedure. A suspension of each organism is prepared by adding 10 mL of sterile saline and 10 microliters of octylphenoxy polyethoxy ethanol to the agar slant of yeast or fungi. The sterile saline/octylphenoxy polyethoxy ethanol solution is then agitated with a sterile swab to suspend the microorganism grown on the slant. Each resulting suspension is diluted into sterile saline (1 part suspension to 9 parts sterile saline). Aliquots of these dilutions are placed in individual wells of Steer's Replicator and petri plates inoculated as previously described. The petri plates are incubated at 30° C. and read after 48 hours for yeast and 72 hours for fungi.
as §3

Bacillus subtilis (Bs) = test: MIC against bacteria (nutrient agar); type: cell-based, Bacillus subtilis ATCC 8473; conditions: 30° C., 48 h, read-out: Minimum Inhibitory Concentration, Bs
[4] = system: Psuedomonas aeruginosa (PRD-10); test: MIC against bacteria (nutrient agar); type: cell-based, Psuedomonas aeruginosa ATCC 15442; conditions: 30° C., 48 h, read-out: Minimum Inhibitory Concentration, PRD
Candida albicans (Ca) = test: MIC against yeast/fungi (malt yeast agar); type: cell-based, Candida albicans ATCC 10231; conditions: 30° C., yeast read after 48 h, read-out: Minimum Inhibitory Concentration, Ca
Procedure: as §1, §4, §2, §5, §3

[5] = system: Enterobacter aerogenes (Ea); test: MIC against bacteria (nutrient agar); type: cell-based, Enterobacter aerogenes ATCC 13048; conditions: Klebsiella aerogenes, 30° C., 48 h, read-out: Minimum Inhibitory Concentration, Ea
Proteus vulgaris (PV) = test: MIC against bacteria (nutrient agar); type: cell-based, Proteus vulgaris ATCC 881; conditions: 30° C., 48 h, read-out: Minimum Inhibitory Concentration, Pv
[6] = system: Staphylococcus aureus (Sa); test: MIC against bacteria (nutrient agar); type: cell-based, Staphylococcus aureus ATCC 6538; conditions: 30° C., 48 h, read-out: Minimum Inhibitory Concentration, Sa
[7] = system: Saccharomyces cerevisiae (Sc); test: MIC against yeast/fungi (malt yeast agar); type: cell-based, Saccharomyces cerevisiae ATCC 4105; conditions: 30° C., yeast read after 48 h, read-out: Minimum Inhibitory Concentration, Sc
Procedure: as §1, §4, §2, §5, §3

Trichoderma viride (Tv) = test: MIC against yeast/fungi (malt yeast agar); type: cell-based, Trichoderma viride ATCC 8678; conditions: 30° C., fungi read after 72 h, read-out: Minimum Inhibitory Concentration, Tv
Procedure: as §1, §4, §2, §5, §3

Aperigillus niger (An) = test: MIC against yeast/fungi (malt yeast agar); type: cell-based, Aperigillus niger ATCC 16404; conditions: 30° C., fungi read after 72 h, read-out: Minimum Inhibitory Concentration, An
Procedure: as §1, §4, §2, §5, §3

[8] = system: Aureobasidium pullulan (Ap); test: MIC against yeast/fungi (malt yeast agar); type: cell-based, Aureobasidium pullulan ATCC 16622; conditions: 30° C., yeast 48 h / fungi 72 h, read-out: Minimum Inhibitory Concentration, Ap
Procedure: as §1, §4, §2, §5, §3

Fusarium oxysporum (Fo) = test: MIC against yeast/fungi (malt yeast agar); type: cell-based, Fusarium oxysporum ATCC 48112; conditions: 30° C., fungi read after 72 h, read-out: Minimum Inhibitory Concentration, Fo
Procedure: as §1, §4, §2, §5, §3

Escherichia coli (Ec) = test: MIC against bacteria (nutrient agar); type: cell-based, Escherichia coli ATCC 11229; conditions: 30° C., 48 h, read-out: Minimum Inhibitory Concentration, Ec
[9] = system: Klebsiella pneumoniae (Kp); test: MIC against bacteria (nutrient agar); type: cell-based, Klebsiella pneumoniae ATCC 8308; conditions: 30° C., 48 h, read-out: Minimum Inhibitory Concentration, Kp

Row | Compound | MIC ([1]; pH 6.8, nutrient agar) | MIC ([1]; pH 8.2, nutrient agar) | MIC ([2]; pH 6.8, nutrient agar) | MIC ([2]; pH 8.2, nutrient agar) | MIC [3] | MIC (Bacillus subtilis (Bs); pH 6.8, nutrient agar) | MIC (Bacillus subtilis (Bs); pH 8.2, nutrient agar) | MIC ([4]; pH 6.8, nutrient agar) | MIC ([4]; pH 8.2, nutrient agar) | MIC (Candida albicans (Ca)) | MIC ([5]; pH 6.8, nutrient agar) | MIC ([5]; pH 8.2, nutrient agar) | MIC (Proteus vulgaris (PV); pH 6.8, nutrient agar) | MIC (Proteus vulgaris (PV); pH 8.2, nutrient agar) | MIC ([6]; pH 6.8, nutrient agar) | MIC ([6]; pH 8.2, nutrient agar) | MIC [7] | MIC (Trichoderma viride (Tv)) | MIC (Aperigillus niger (An)) | MIC [8] | further results
1 | N#CSCOc1nsnc1-c1ccc(F)cc1 [IV, ((4(4-Fluorophenyl)-1,2,5-thiadiazol-3-yl)oxy)methyl ester thiocyanic acid] | > 500 µg/mL | > 500 µg/mL | 500 µg/mL (≈ 1870 µM) | > 500 µg/mL | < 1 µg/mL | < 10 µg/mL | < 10 µg/mL | > 500 µg/mL | > 500 µg/mL | 5 µg/mL (≈ 18.7 µM) | > 500 µg/mL | 500 µg/mL (≈ 1870 µM) | > 500 µg/mL | 500 µg/mL (≈ 1870 µM) | < 10 µg/mL | 25 µg/mL (≈ 93.5 µM) | 2.5 µg/mL (≈ 9.35 µM) | 500 µg/mL (≈ 1870 µM) | 2.5 µg/mL (≈ 9.35 µM) | 2.5 µg/mL (≈ 9.35 µM) | MIC (Fusarium oxysporum (Fo)): 5 µg/mL (≈ 18.7 µM); MIC (Escherichia coli (Ec); pH 6.8, nutrient agar): 500 µg/mL (≈ 1870 µM); MIC (Escherichia coli (Ec); pH 8.2, nutrient agar): > 500 µg/mL; MIC ([9]; pH 6.8, nutrient agar): 500 µg/mL (≈ 1870 µM); MIC ([9]; pH 8.2, nutrient agar): 500 µg/mL (≈ 1870 µM)
2 | N#CSCOc1nsnc1-c1cccc(Cl)c1 [II, ((4-(3-Chlorophenyl)-1,2,5-thiadiazol-3-yl)oxy)methyl ester thiocyanic acid] | > 500 µg/mL | > 500 µg/mL | 500 µg/mL (≈ 1760 µM) | > 500 µg/mL | < 1 µg/mL | < 10 µg/mL | < 10 µg/mL | > 500 µg/mL | > 500 µg/mL | 5 µg/mL (≈ 17.6 µM) | > 500 µg/mL | 500 µg/mL (≈ 1760 µM) | > 500 µg/mL | 500 µg/mL (≈ 1760 µM) | < 10 µg/mL | < 10 µg/mL | < 1 µg/mL | 500 µg/mL (≈ 1760 µM) | 2.5 µg/mL (≈ 8.81 µM) | 2.5 µg/mL (≈ 8.81 µM) | MIC (Fusarium oxysporum (Fo)): 10 µg/mL (≈ 35.2 µM); MIC (Escherichia coli (Ec); pH 6.8, nutrient agar): 500 µg/mL (≈ 1760 µM); MIC (Escherichia coli (Ec); pH 8.2, nutrient agar): > 500 µg/mL; MIC ([9]; pH 6.8, nutrient agar): 500 µg/mL (≈ 1760 µM); MIC ([9]; pH 8.2, nutrient agar): 500 µg/mL (≈ 1760 µM)
